Earlier results as cited in PMC4629263 (Acta Pharmaceutica Sinica. B, 2015).

Legend:
[1] = room temperature
[2] = mice

SMILES	Stability in aqueous solution [1]	LD50 [2]	pKa
COc1cc(N)c2c(c1O)-c1c(OC)c(OC)cc3c1[C@H](C2)N(C)CC3 [8-amino-isocorydine]	not stable	–	–
COc1ccc2c(c1O)-c1c(OC)c(OC)cc3c1[C@H](C2)N(C)CC3 [ICD, Isocorydine]	–	32.2 mg/kg	7.16
